Reference: ChEMBL document CHEMBL3758109, “A novel triazole derivative of betulinic acid induces extrinsic and intrinsic apoptosis in human leukemia HL-60 cells” (Eur J Med Chem, 2016)
Calls of active or inactive are those of the source. The rule behind the calls is not given here.

How the values were obtained:
HL-60 [1] = experiment: Induction of apoptosis in human HL60 cells assessed as decrease in Bcl-2/Bax ratio after 24 hrs by Western blot; assay type: functional, cell-based
[2] = Cytotoxicity against human HL60 cells assessed as cell growth inhibition at 10 uM after 48 hrs by MTT assay; assay type: functional; details: HL-60, 48 h, read-out: GI
HL-60 [3] = experiment: Induction of apoptosis in human HL60 cells assessed as up regulation of Bax after 24 hrs by Western blot; assay type: functional, cell-based
HL-60 [4] = experiment: Induction of apoptosis in human HL60 cells at 20 uM after 24 hrs by propidium iodide staining based flow cytometry (reference value: 3%); assay type: functional
[5] = Cytotoxicity against human HL60 cells assessed as cell growth inhibition after 48 hrs by MTT assay; assay type: functional, cell-based; details: HL-60, 48 h
[6] = Cell cycle arrest in human HL60 cells assessed as accumulation at S phase at 10 uM after 24 hrs by propidium iodide staining based flow cytometry (reference value: 48%); assay type: functional; details: HL-60
[7] = Cell cycle arrest in human HL60 cells assessed as accumulation at S phase at 5 uM after 24 hrs by propidium iodide staining based flow cytometry (reference value: 48%); assay type: functional; details: HL-60
HL-60 [8] = experiment: Induction of mitochondrial potential loss in human HL60 cells at 20 uM after 24 hrs by rhodamine-123 staining based flow cytometry (reference value: 3%); assay type: functional
[9] = Cell cycle arrest in human HL60 cells assessed as accumulation at G2/M phase at 10 uM after 24 hrs by propidium iodide staining based flow cytometry (reference value: 6%); assay type: functional; details: HL-60
[10] = Cell cycle arrest in human HL60 cells assessed as accumulation at G1 phase at 20 uM after 24 hrs by propidium iodide staining based flow cytometry (reference value: 46%); assay type: functional; details: HL-60
[11] = Cytotoxicity against human MIAPaCa2 cells assessed as cell growth inhibition after 48 hrs by MTT assay; assay type: functional, cell-based; details: MIA PaCa-2, 48 h
HL-60 [12] = experiment: Induction of apoptosis in human HL60 cells assessed as down regulation of Bcl-2 after 24 hrs by Western blot; assay type: functional, cell-based
HL-60 [13] = experiment: Induction of mitochondrial potential loss in human HL60 cells after 24 hrs by rhodamine-123 staining based flow cytometry (reference value: 3%); assay type: functional, cell-based
[14] = Cell cycle arrest in human HL60 cells assessed as accumulation at S phase at 20 uM after 24 hrs by propidium iodide staining based flow cytometry (reference value: 48%); assay type: functional; details: HL-60
HL-60 [15] = experiment: Induction of apoptosis in human HL60 cells at 10 uM after 24 hrs by propidium iodide staining based flow cytometry (reference value: 3%); assay type: functional
HL-60 [16] = experiment: Induction of apoptosis in human HL60 cells assessed as activation of procaspase- 8 at 5 to 20 uM after 24 hrs by Western blot; assay type: functional, cell-based
HL-60 [17] = experiment: Induction of apoptosis in human HL60 cells assessed as activation of caspase- 3 at 5 to 20 uM after 24 hrs by Western blot; assay type: functional, cell-based
HL-60 [18] = experiment: Induction of apoptosis in human HL60 cells at 5 uM after 24 hrs by propidium iodide staining based flow cytometry (reference value: 3%); assay type: functional
HL-60 [19] = experiment: Induction of mitochondrial potential loss in human HL60 cells at 10 uM after 24 hrs by rhodamine-123 staining based flow cytometry (reference value: 3%); assay type: functional
[20] = Cytotoxicity against human PC3 cells assessed as cell growth inhibition at 10 uM after 48 hrs by MTT assay; assay type: functional; details: PC-3, 48 h, read-out: GI
[21] = Cytotoxicity against human MIAPaCa2 cells assessed as cell growth inhibition at 10 uM after 48 hrs by MTT assay; assay type: functional; details: MIA PaCa-2, 48 h, read-out: GI
HL-60 [22] = experiment: Induction of apoptosis in human HL60 cells assessed as cleavage of PARP-1 at 5 to 20 uM after 24 hrs by Western blot; assay type: functional, cell-based
[23] = Cell cycle arrest in human HL60 cells assessed as accumulation at G1 phase at 5 uM after 24 hrs by propidium iodide staining based flow cytometry (reference value: 46%); assay type: functional; details: HL-60
[24] = Cell cycle arrest in human HL60 cells assessed as accumulation at G2/M phase at 5 uM after 24 hrs by propidium iodide staining based flow cytometry (reference value: 6%); assay type: functional; details: HL-60
HL-60 [25] = experiment: Induction of apoptosis in human HL60 cells assessed as activation of caspase- 7 at 5 to 20 uM after 24 hrs by Western blot; assay type: functional, cell-based
[26] = Cell cycle arrest in human HL60 cells assessed as accumulation at G1 phase at 10 uM after 24 hrs by propidium iodide staining based flow cytometry (reference value: 46%); assay type: functional; details: HL-60
HL-60 [27] = experiment: Induction of apoptosis in human HL60 cells assessed as activation of caspase- 6 at 5 to 20 uM after 24 hrs by Western blot; assay type: functional, cell-based
[28] = Cell cycle arrest in human HL60 cells assessed as accumulation at G2/M phase at 20 uM after 24 hrs by propidium iodide staining based flow cytometry (reference value: 6%); assay type: functional; details: HL-60
HL-60 [29] = experiment: Induction of apoptosis in human HL60 cells assessed as activation of procaspase- 9 at 5 to 20 uM after 24 hrs by Western blot; assay type: functional, cell-based
A549 [30] = experiment: Cytotoxicity against human A549 cells assessed as cell growth inhibition at 10 uM after 48 hrs by MTT assay; assay type: functional; details: A549, 48 h, read-out: GI
A549 [31] = experiment: Cytotoxicity against human A549 cells assessed as cell growth inhibition after 48 hrs by MTT assay; assay type: functional, cell-based; details: A549, 48 h
HL-60 [32] = experiment: Induction of mitochondrial potential loss in human HL60 cells at 5 uM after 24 hrs by rhodamine-123 staining based flow cytometry (reference value: 3%); assay type: functional
[33] = Cytotoxicity against human PC3 cells assessed as cell growth inhibition after 48 hrs by MTT assay; assay type: functional, cell-based; details: PC-3, 48 h

C=C(C)[C@@H]1CC[C@]2(C(=O)OCc3cn(-c4ccc(F)cc4)nn3)CC[C@]3(C)[C@H](CC[C@@H]4[C@@]5(C)CC[C@H](O)C(C)(C)[C@@H]5CC[C@]43C)[C@@H]12
Activity (HL-60 [1]): Active
inhibition of growth at 10 µM [2]: 69%
Activity (HL-60 [3]): Active
Activity (HL-60 [4]): 14%
IC50 [5]: 7 µM
Activity [6]: 44%
Activity [7]: 47%
Activity (HL-60 [8]): 27%
Activity [9]: 3%
Activity [10]: 90%
IC50 [11]: 5 µM
Activity (HL-60 [12]): Dose-dependent effect
Activity (HL-60 [13]): Dose-dependent effect
Activity [14]: 9%
Activity (HL-60 [15]): 7%
Activity (HL-60 [16]): Active
Activity (HL-60 [17]): Active
Activity (HL-60 [18]): 5%
Activity (HL-60 [19]): 18%
inhibition of growth at 10 µM [20]: 62%
inhibition of growth at 10 µM [21]: 75%
Activity (HL-60 [22]): Active
Activity [23]: 48%
Activity [24]: 5%
Activity (HL-60 [25]): Active
Activity [26]: 53%
Activity (HL-60 [27]): Active
Activity [28]: 1%
Activity (HL-60 [29]): Active
inhibition of growth at 10 µM (A549 [30]): 63%
IC50 (A549 [31]): 7 µM
Activity (HL-60 [32]): 7%
IC50 [33]: 7 µM

C=C(C)[C@@H]1CC[C@]2(C(=O)OCc3cn(-c4ccc(OC)cc4)nn3)CC[C@]3(C)[C@H](CC[C@@H]4[C@@]5(C)CC[C@H](O)C(C)(C)[C@@H]5CC[C@]43C)[C@@H]12
inhibition of growth at 10 µM [2]: 8%
IC50 [5]: 30 µM
IC50 [11]: 22 µM
inhibition of growth at 10 µM [20]: 2%
inhibition of growth at 10 µM [21]: 36%
inhibition of growth at 10 µM (A549 [30]): 13%
IC50 (A549 [31]): > 100 µM
IC50 [33]: > 100 µM

C=C(C)[C@@H]1CC[C@]2(C(=O)OCc3cn(-c4ccc(Br)cc4)nn3)CC[C@]3(C)[C@H](CC[C@@H]4[C@@]5(C)CC[C@H](O)C(C)(C)[C@@H]5CC[C@]43C)[C@@H]12
inhibition of growth at 10 µM [2]: 39%
IC50 [5]: 25 µM
IC50 [11]: 7 µM
inhibition of growth at 10 µM [20]: 45%
inhibition of growth at 10 µM [21]: 61%
inhibition of growth at 10 µM (A549 [30]): 54%
IC50 (A549 [31]): 8 µM
IC50 [33]: 25 µM

C=C(C)[C@@H]1CC[C@]2(C(=O)OCc3cn(-c4ccccc4OC)nn3)CC[C@]3(C)[C@H](CC[C@@H]4[C@@]5(C)CC[C@H](O)C(C)(C)[C@@H]5CC[C@]43C)[C@@H]12
inhibition of growth at 10 µM [2]: 34%
IC50 [5]: 29 µM
IC50 [11]: 9 µM
inhibition of growth at 10 µM [20]: 3%
inhibition of growth at 10 µM [21]: 50%
inhibition of growth at 10 µM (A549 [30]): 12%
IC50 (A549 [31]): > 100 µM
IC50 [33]: > 100 µM

C=C(C)[C@@H]1CC[C@]2(C(=O)OCc3cn(-c4ccc(C#N)cc4)nn3)CC[C@]3(C)[C@H](CC[C@@H]4[C@@]5(C)CC[C@H](O)C(C)(C)[C@@H]5CC[C@]43C)[C@@H]12
inhibition of growth at 10 µM [2]: 55%
IC50 [5]: 8 µM
IC50 [11]: 8 µM
inhibition of growth at 10 µM [20]: 46%
inhibition of growth at 10 µM [21]: 57%
inhibition of growth at 10 µM (A549 [30]): 63%
IC50 (A549 [31]): 7 µM
IC50 [33]: 12 µM
